Assay results: US8420144B2, “Kokumi-imparting agent, method of using, and compositions containing same” (Ajinomoto Co., Inc., priority 2005, dated 2013)

Columns and labels:
Assay type in all cases: in vivo, human
[1] = Quantitative sensory evaluation test: imparting kokumi to curry sauce; settings: n=12, 0 control, 3 intense, 5 extremely intense
Procedure: The intensity of the activity for imparting kokumi to curry sauce of each peptide having confirmed calcium receptor activation activity was measured by a quantitative sensory evaluation test, performed as follows: to curry sauce prepared in a conventional manner by using commercially available curry roux, samples of either γ-Glu-Cys-Gly (glutathione) or γ-Glu-Val-Gly were added to a concentration of 0.0001 to 1 g/dl, and the intensity of kokumi-imparting activity was measured for each sample. The curry sauces with the samples that became acidic after dissolution of the samples with respect to the curry soup without the samples were adjusted with NaOH to pH not lower or higher by 0.2 than pH of the curry soup without the samples before use. Sensory evaluation scores were used to evaluate as follows: 0 points for the control sample, 3 points for intense activity as compared to the control, and 5 points for extremely intense activity as compared to the control, and the test was performed with n=12.

[2] = Quantitative sensory evaluation test: imparting kokumi to corn soup; settings: n=12, 0 control, 3 intense, 5 extremely intense
Procedure: The intensity of the activity for imparting kokumi to corn soup of each peptide having confirmed calcium receptor activation activity was measured by a quantitative sensory evaluation test, performed as follows: to commercially available corn soup, samples of either γ-Glu-Cys-Gly (glutathione) or γ-Glu-Val-Gly were added to a concentration of 0.0001 to 1 g/dl, and the intensity of the kokumi-imparting activity was measured for each sample. The corn soup with the samples that became acidic after dissolution of the samples with respect to the corn soup without the samples was adjusted with NaOH to pH not lower or higher by 0.2 than pH of the corn soup without the samples before use. Sensory evaluation scores were used to evaluate as follows: 0 points for the control sample, 3 points for intense activity as compared to the control, and 5 points for extremely intense activity as compared to the control, and the test was performed with n=12.

[3] = Quantitative sensory evaluation test: imparting kokumi to consomme soup; settings: n=12, 0 control, 3 intense, 5 extremely intense
Procedure: The intensity of activity for imparting kokumi to consomme soup of each peptide having confirmed calcium receptor activation activity was measured by a quantitative sensory evaluation test, performed as follows: Consomme soup was prepared by dissolving consomme soup powder (35% of sodium chloride, 18% of sodium glutamate, 0.2% of inosine monophosphate, 0.3% of white pepper powder, 0.5% of black pepper powder, 8.0% of beef extract powder, 3.0% of white wine powder, 2.0% of celery powder, 8.0% of Chinese cabbage extract powder, 2.5% of onion extract powder, […]) at a concentration of 5 g/dl. To this consomme soup, samples of either γ-Glu-Cys-Gly (glutathione) or γ-Glu-Val-Gly was added to a concentration of 0.0001 to 1 g/dl, and the intensity of the kokumi-imparting activity was measured for each sample. The consomme soup with the samples that became acidic after dissolution of the samples with respect to the consomme soup without the samples was adjusted with NaOH to pH not lower or higher by 0.2 than pH of the consomme soup without the samples before use. Sensory evaluation scores were used for evaluation as follows: 0 points for the control sample, 3 points for intense activity as compared to the control, and 5 points for extremely intense activity as compared to the control, and the test was performed with n=12.

[4] = Quantitative sensory evaluation test of activity on basic tastes (umami, sweet, salty, sour standards); settings: n=12, 0 control, 1 fairly intense, 2 intense; for Sour taste (intensity of activity on basic tastes): citric acid 0.05 g/dl standard; for Salty taste (intensity of activity on basic tastes): sodium chloride 0.7 g/dl standard; for Umami (intensity of activity on basic tastes): sodium glutamate 0.2 g/dl standard; for Sweet taste (intensity of activity on basic tastes): sucrose 5 g/dl standard
Procedure: The intensity of the activity on basic tastes of each peptide having confirmed calcium receptor activation activity was measured by a quantitative sensory evaluation test, performed as follows: Samples of either γ-Glu-Cys-Gly (glutathione) or γ-Glu-Val-Gly were added to distilled water (0.0001 to 1 g/dl) containing sodium glutamate (0.2 g/dl) for the umami standard, sucrose (5 g/dl) for the sweet taste standard, sodium chloride (0.7 g/dl) or the salty taste standard, or citric acid (0.05 g/dl) for the sour taste standard, and the intensity of the activity on basic tastes was measured for each sample.
Sample solutions that became acidic after dissolution of the samples with respect to the standard solutions without the samples were adjusted with NaOH to pH not lower or higher by 0.2 than pH of the standard solutions before use. Sensory evaluation scores were used to evaluate the intensity as follows: 0 points for the control sample, 1 point for fairly intense activity as compared to the control, and 2 points for intense activity as compared to the control, and the test was performed with n=12.

[5] = Quantitative sensory evaluation test: imparting kokumi to Japanese clear soup; settings: n=12, 0 control, 3 intense, 5 extremely intense
Procedure: The intensity of activity for imparting kokumi to clear soup of each peptide having confirmed calcium receptor activation activity was measured by a quantitative sensory evaluation test, performed as follows: Japanese clear soup was prepared by adding 0.5 g/dl of soy sauce and 0.6 g/dl of sodium chloride to bonito kelp stock, obtained by adding 5 g of dried kelp to 3 L of water, heating the water, adding 25 g of dried bonito flakes just before boiling, and then filtering the water containing kelp and bonito flakes. To this clear soup, samples of either γ-Glu-Cys-Gly (glutathione) or γ-Glu-Val-Gly was added to a concentration of 0.0001 to 1 g/dl, and the intensity of the kokumi-imparting activity was measured for each sample. The clear soup with the samples that became acidic after dissolution of the samples with respect to the clear soup without the samples were adjusted with NaOH to pH not lower or higher by 0.2 than pH of the clear soup without the samples before use. Sensory evaluation scores were used to evaluate as follows: 0 points for the control sample, 3 points for intense activity as compared to the control, and 5 points for extremely intense activity as compared to the control, and the test was performed with n=12.

## CC(C)[C@H](NC(=O)CC[C@H](N)C(=O)O)C(=O)NCC(=O)O [γ-Glu-Val-Gly]
[1]; 0.001 g/dl
  Intensity of kokumi: Aftertaste: 3.0 points
  Intensity of kokumi: First and middle taste: 2.5 points
[1]; 0.005 g/dl
  Intensity of kokumi: Aftertaste: 4.0 points
  Intensity of kokumi: First and middle taste: 3.5 points
[1]; 0.01 g/dl
  Intensity of kokumi: Aftertaste: 5.0 points
  Intensity of kokumi: First and middle taste: 5.0 points
[1]; 0.1 g/dl
  Intensity of kokumi: Aftertaste: 5.0 points
  Intensity of kokumi: First and middle taste: 5.0 points
[2]; 0.0005 g/dl
  Intensity of kokumi: Aftertaste: 3.0 points
  Intensity of kokumi: First and middle taste: 2.5 points
[2]; 0.001 g/dl
  Intensity of kokumi: Aftertaste: 4.0 points
  Intensity of kokumi: First and middle taste: 3.5 points
[2]; 0.01 g/dl
  Intensity of kokumi: Aftertaste: 5.0 points
  Intensity of kokumi: First and middle taste: 4.5 points
[2]; 0.1 g/dl
  Intensity of kokumi: Aftertaste: 5.0 points
  Intensity of kokumi: First and middle taste: 5.0 points
[3]; 0.0005 g/dl
  Intensity of kokumi: Aftertaste: 3.0 points
  Intensity of kokumi: First and middle taste: 2.5 points
[3]; 0.001 g/dl
  Intensity of kokumi: Aftertaste: 3.5 points
  Intensity of kokumi: First and middle taste: 3.0 points
[3]; 0.01 g/dl
  Intensity of kokumi: Aftertaste: 5.0 points
  Intensity of kokumi: First and middle taste: 5.0 points
[3]; 0.1 g/dl
  Intensity of kokumi: Aftertaste: 5.0 points
  Intensity of kokumi: First and middle taste: 5.0 points
[4]; 0.005 g/dl
  Sour taste (intensity of activity on basic tastes): 0.5 points
  Salty taste (intensity of activity on basic tastes): 0.5 points
  Umami (intensity of activity on basic tastes): 0.7 points
  Sweet taste (intensity of activity on basic tastes): 0.5 points
[4]; 0.01 g/dl
  Sour taste (intensity of activity on basic tastes): 1.0 points
  Salty taste (intensity of activity on basic tastes): 1.0 points
  Umami (intensity of activity on basic tastes): 1.5 points
  Sweet taste (intensity of activity on basic tastes): 1.0 points
[5]; 0.0005 g/dl
  Intensity of kokumi: Aftertaste: 3.0 points
  Intensity of kokumi: First and middle taste: 2.5 points
[5]; 0.001 g/dl
  Intensity of kokumi: Aftertaste: 4.0 points
  Intensity of kokumi: First and middle taste: 3.5 points
[5]; 0.01 g/dl
  Intensity of kokumi: Aftertaste: 5.0 points
  Intensity of kokumi: First and middle taste: 5.0 points
[5]; 0.1 g/dl
  Intensity of kokumi: Aftertaste: 5.0 points
  Intensity of kokumi: First and middle taste: 5.0 points

## N[C@@H](CCC(=O)N[C@@H](CS)C(=O)NCC(=O)O)C(=O)O [γ-Glu-Cys-Gly, reference compound]
[1]; 0.01 g/dl
  Intensity of kokumi: Aftertaste: 3.0 points
  Intensity of kokumi: First and middle taste: 3.0 points
[2]; 0.01 g/dl
  Intensity of kokumi: Aftertaste: 3.0 points
  Intensity of kokumi: First and middle taste: 3.0 points
[3]; 0.01 g/dl
  Intensity of kokumi: Aftertaste: 3.0 points
  Intensity of kokumi: First and middle taste: 3.0 points
[4]; 0.10 g/dl
  Sour taste (intensity of activity on basic tastes): 1.5 points
  Salty taste (intensity of activity on basic tastes): 0.2 points
  Umami (intensity of activity on basic tastes): 0.7 points
  Sweet taste (intensity of activity on basic tastes): 1.5 points
[5]; 0.01 g/dl
  Intensity of kokumi: Aftertaste: 2.0 points
  Intensity of kokumi: First and middle taste: 2.0 points
